Laboratory results as given in patent publication US20040185102A1, “Dosage forms comprising a CETP inhibitor and an HMG-CoA reductase inhibitor” (Pfizer Inc, priority 2002, published 2004).

What was measured:
aqueous solubility = type: physicochemical
[1] = in vitro dissolution test using a microcentrifuge method; type: physicochemical; conditions: for AUC / Torcetrapib Concentration: PBS pH 6.5, 37° C.; for Torcetrapib Concentration: 1000 μg/mL if all drug dissolved
Protocol: The spray-dried solid amorphous dispersion was evaluated in an in vitro dissolution test using a microcentrifuge method. In this test, 7.2 mg of the spray-dried solid amorphous dispersion was placed into a microcentrifuge tube. The tube was placed in a 37° C. sonicating bath, and 1.8 mL phosphate buffered saline (PBS) at pH 6.5 and 290 mOsm/kg was added, resulting in a torcetrapib concentration of 1000 μg/mL if all of the drug had dissolved. The sample was quickly mixed using a vortex mixer for about 60 seconds. The sample was centrifuged at 13,000 G at 37° C. for 1 minute. The resulting supernatant solution was then sampled and diluted 1:6 (by volume with methanol and then analyzed by high-performance liquid chromatography (HPLC). The contents of the tube was mixed on the vortex mixer and allowed to stand undisturbed at 37° C. until the next sample was taken. Samples were collected at 4, 10, 20, 40, 90, and 1200 minutes. The concentrations of drug obtained in these samples are shown in Table 1, which represent the average of duplicate tests.
As a control, an in vitro dissolution test was performed using the procedures described above except that 1.8 mg of crystalline drug was used. […]

CCOC(=O)N1c2ccc(C(F)(F)F)cc2[C@@H](N(Cc2cc(C(F)(F)F)cc(C(F)(F)F)c2)C(=O)OC)C[C@H]1CC [Crystalline Drug, [2R,4S]-4-[(3,5-bis-trifluoromethyl-benzyl)-methoxycarbonyl-amino]-2-ethyl-6-trifluoromethyl-3,4-dihydro-2H-quinoline-1-carboxylic acid ethyl ester]
solubility (aqueous solubility): < 0.04 µg/mL | AUC90 (area under the aqueous concentration versus time curve after 90 minutes) ([1]; receptor solution PBS): <88 min-μg/mL | Cmax,90 (maximum concentration of torcetrapib in solution during the first 90 minutes) ([1]; receptor solution PBS): <1000 ng/mL | AUC ([1]; time 0 min): 0 min-μg/mL | Torcetrapib Concentration ([1]; time 0 min): 0 µg/mL | AUC ([1]; time 4 min): <2 min-μg/mL | Torcetrapib Concentration ([1]; time 4 min): <1 µg/mL | AUC ([1]; time 10 min): <8 min-μg/mL | Torcetrapib Concentration ([1]; time 10 min): <1 µg/mL | AUC ([1]; time 20 min): <18 min-μg/mL | Torcetrapib Concentration ([1]; time 20 min): <1 µg/mL | AUC ([1]; time 40 min): <38 min-μg/mL | Torcetrapib Concentration ([1]; time 40 min): <1 µg/mL | AUC ([1]; time 90 min): <88 min-μg/mL | Torcetrapib Concentration ([1]; time 90 min): <1 µg/mL | AUC ([1]; time 1200 min): <1,200 min-μg/mL | Torcetrapib Concentration ([1]; time 1200 min): <1 µg/mL
